This passage reports IC50 results from patent US20260028365A1 (BIOGEN MA INC., priority 2022, published 2026).

The structures appear in SMILES notation. pIC50: −log10 of the molar value. Like-named read-outs stand apart in the source and are kept apart here. A value given as a limit tells only on which side of the number the result lay.

One test concerns the target Tyk2 (Homo sapiens (Human), UniProt P29597). In words: pSTAT4 Cell Assay (MSD, NK92 cells). The test is classed as cell-based.
A further test concerns the target JH2 domain of human Tyk2 (Homo sapiens (Human), UniProt P29597). In words: JH2 Biochemical Assay (TR-FRET probe displacement). The test is classed as binding.
[1] abbreviates: TR-FRET probe displacement, JH2 domain of human Tyk2.
Where [2] appears, read: TR-FRET probe displacement, JH2 domain.
The mark [3] stands for this setting: JH2 domain of human Tyk2, TR-FRET probe displacement.

Chain of JH2 domain of human Tyk2 (P29597 575-876): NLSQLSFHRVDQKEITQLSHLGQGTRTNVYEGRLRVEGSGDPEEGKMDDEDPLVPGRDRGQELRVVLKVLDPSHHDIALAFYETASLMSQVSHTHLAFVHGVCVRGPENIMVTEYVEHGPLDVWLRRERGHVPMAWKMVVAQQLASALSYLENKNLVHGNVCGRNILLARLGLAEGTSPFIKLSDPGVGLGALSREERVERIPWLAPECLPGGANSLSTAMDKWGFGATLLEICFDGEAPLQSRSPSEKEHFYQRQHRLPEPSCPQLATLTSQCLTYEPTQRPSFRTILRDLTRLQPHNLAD
Chain of Tyk2 (P29597 whole entry, the tested form may be a part): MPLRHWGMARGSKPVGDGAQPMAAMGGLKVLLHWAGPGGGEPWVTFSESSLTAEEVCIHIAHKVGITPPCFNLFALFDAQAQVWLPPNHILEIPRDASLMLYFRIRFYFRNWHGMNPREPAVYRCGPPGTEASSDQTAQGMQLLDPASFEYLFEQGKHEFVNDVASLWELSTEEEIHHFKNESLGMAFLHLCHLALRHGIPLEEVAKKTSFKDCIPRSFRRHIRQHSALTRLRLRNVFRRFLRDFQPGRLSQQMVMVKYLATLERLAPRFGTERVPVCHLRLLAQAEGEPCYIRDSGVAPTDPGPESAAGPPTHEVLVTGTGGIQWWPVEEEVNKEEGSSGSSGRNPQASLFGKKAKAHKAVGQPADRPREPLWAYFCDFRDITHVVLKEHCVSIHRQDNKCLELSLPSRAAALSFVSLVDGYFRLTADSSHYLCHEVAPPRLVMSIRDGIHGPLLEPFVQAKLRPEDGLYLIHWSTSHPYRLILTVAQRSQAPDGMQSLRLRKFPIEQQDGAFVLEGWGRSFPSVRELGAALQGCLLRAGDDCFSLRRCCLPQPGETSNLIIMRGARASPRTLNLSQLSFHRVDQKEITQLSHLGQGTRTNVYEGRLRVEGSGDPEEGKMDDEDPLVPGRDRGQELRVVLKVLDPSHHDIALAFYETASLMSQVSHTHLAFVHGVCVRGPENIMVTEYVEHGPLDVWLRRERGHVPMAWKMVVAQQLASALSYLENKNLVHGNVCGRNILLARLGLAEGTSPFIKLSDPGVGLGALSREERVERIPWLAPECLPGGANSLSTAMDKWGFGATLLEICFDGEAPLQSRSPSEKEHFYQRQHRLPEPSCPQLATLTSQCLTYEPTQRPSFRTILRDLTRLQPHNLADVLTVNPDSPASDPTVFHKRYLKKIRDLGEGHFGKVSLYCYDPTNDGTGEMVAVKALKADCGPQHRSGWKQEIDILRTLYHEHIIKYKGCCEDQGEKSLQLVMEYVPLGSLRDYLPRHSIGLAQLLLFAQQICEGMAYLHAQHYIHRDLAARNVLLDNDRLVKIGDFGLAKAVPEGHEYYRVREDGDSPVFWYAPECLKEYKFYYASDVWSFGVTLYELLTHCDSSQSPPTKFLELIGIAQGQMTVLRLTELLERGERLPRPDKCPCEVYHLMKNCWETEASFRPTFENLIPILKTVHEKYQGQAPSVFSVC

By pIC50 is commonly meant the IC50 on a negative log10 scale, so that one unit is a factor of ten. High values mean a small IC50, low ones a large IC50. Turning to `CC(=O)Nc1cc(Nc2cc(OC3CC3)nc(C(C)(F)F)n2)c(OC(F)(F)F)cn1` [Example 93, N-(4-((6-cyclopropoxy-2-(1,1-difluoroethyl)pyrimidin-4-yl)amino)-5-(trifluoromethoxy)pyridin-2-yl)acetamide], the values for the negative-log IC50 (pIC50) against Tyk2 (MSD) and on JH2 domain of human Tyk2 (setting [1]) were 6.00 to 7.00 and not below 8.00, respectively.
As for `CC(=O)Nc1cc(Nc2ccnc(C(C)(F)F)n2)c(-c2cnc(N3C[C@H]4C[C@@H](C3)O4)cn2)cn1` [Example 887, N-(5-(5-((1R,5S)-6-oxa-3-azabicyclo[3.1.1]heptan-3-yl)pyrazin-2-yl)-4-((2-(1,1-difluoroethyl)pyrimidin-4-yl)amino)pyridin-2-yl)acetamide], the pIC50 was 7.00 to 8.00 on Tyk2 and not below 8.00 on JH2 domain of human Tyk2 (setting [2]).
As for `COc1cnc(NC(C)=O)cc1Nc1cc(-c2cnn(CC(F)(F)F)c2)nc(C(C)(F)F)n1` [Example 381, N-(4-((2-(1,1-difluoroethyl)-6-(1-(2,2,2-trifluoroethyl)-1H-pyrazol-4-yl)pyrimidin-4-yl)amino)-5-methoxypyridin-2-yl)acetamide], the pIC50 was 7.00 to 8.00 at Tyk2 (MSD) and not below 8.00 on JH2 domain of human Tyk2 (setting [3]).
`CC(=O)Nc1cc(Nc2cc(C)nc(C(C)(F)F)n2)c(-c2ncns2)cn1` [Example 235, N-(4-((2-(1,1-difluoroethyl)-6-methylpyrimidin-4-yl)amino)-5-(1,2,4-thiadiazol-5-yl)pyridin-2-yl)acetamide]: the pIC50 on Tyk2 (MSD) and at JH2 domain of human Tyk2 (setting [1]) was not below 8.00 in each case.
Turning to `CC(=O)Nc1cc(Nc2ccnc(C(C)(F)F)n2)c(-c2nc(C)ns2)cn1` [Example 716, N-(4-((2-(1,1-difluoroethyl)pyrimidin-4-yl)amino)-5-(3-methyl-1,2,4-thiadiazol-5-yl)pyridin-2-yl)acetamide], the pIC50 at Tyk2 (MSD) is 7.00 to 8.00; at JH2 domain of human Tyk2 (setting [3]), not below 8.00.
For `CCOc1cnc(NC(C)=O)cc1Nc1nc(C(C)(F)F)nc(C)c1F` [Example 35, N-(4-((2-(1,1-difluoroethyl)-5-fluoro-6-methylpyrimidin-4-yl)amino)-5-ethoxypyridin-2-yl)acetamide], the pIC50 against Tyk2 (MSD) was 6.00 to 7.00; on JH2 domain of human Tyk2 (setting [1]) it was not below 8.00.
Consider `CC(=O)Nc1cc(Nc2ccnc(C(C)(F)F)n2)c(-c2ccc(N3CCC4(COC4)C3)nn2)cn1` [Example 890, N-(5-(6-(2-oxa-6-azaspiro[3.4]octan-6-yl)pyridazin-3-yl)-4-((2-(1,1-difluoroethyl)pyrimidin-4-yl)amino)pyridin-2-yl)acetamide], for which the pIC50 against Tyk2 and at JH2 domain of human Tyk2 (setting [2]) was not below 8.00 in each case.
Consider `CC(=O)Nc1cc(Nc2cc(C)nc(C(C)(F)F)n2)c(-c2cn3c(n2)CCC3)cn1` [Example 769, N-(4-((2-(1,1-difluoroethyl)-6-methylpyrimidin-4-yl)amino)-5-(6,7-dihydrO5H-pyrrolo[1,2-a]imidazol-2-yl)pyridin-2-yl)acetamide], for which the pIC50 on Tyk2 and at JH2 domain of human Tyk2 (setting [2]) was not below 8.00 each time.
For `CCOc1cnc(NC(C)=O)cc1Nc1cc(OC2CC(C)(O)C2)nc(C(C)(F)F)n1` (stereo not shown) [Example 53, N-(4-((2-(1,1-difluoroethyl)-6-(3-hydroxy-3-methylcyclobutoxy)pyrimidin-4-yl)amino)-5-ethoxypyridin-2-yl)acetamide], the figures for the pIC50 at Tyk2 (MSD) and at JH2 domain of human Tyk2 (setting [1]) were 7.00 to 8.00 and not below 8.00, respectively.
Consider `CCOc1cnc(NC(C)=O)cc1Nc1cc(-c2cnn(C3CCC3)c2)nc(C(C)(F)F)n1` [Example 312, N-(4-((6-(1-cyclobutyl-1H-pyrazol-4-yl)-2-(1,1-difluoroethyl)pyrimidin-4-yl)amino)-5-ethoxypyridin-2-yl)acetamide], for which the pIC50 on Tyk2 (MSD) and at JH2 domain of human Tyk2 (setting [1]) was not below 8.00 in each case.
On to `CC(=O)Nc1cc(Nc2ccnc(C(C)(F)F)n2)c(-c2ccc(CN3C[C@H]4C[C@@H](C3)O4)cn2)cn1` [Example 702, N-(5-(((1R,5S)-6-oxa-3-azabicyclo[3.1.1]heptan-3-yl)methyl)-4′-((2-(1,1-difluoroethyl)pyrimidin-4-yl)amino)-[2,3′-bipyridin]-6′-yl)acetamide], for which the negative logarithm of the IC50 (pIC50) against Tyk2 (MSD) and on JH2 domain of human Tyk2 (setting [3]) was not below 8.00 each time.
`COCc1nsc(-c2cnc(NC(C)=O)cc2Nc2cc(C)nc(C(C)(F)F)n2)n1` [Example 762, N-(4-((2-(1,1-difluoroethyl)-6-methylpyrimidin-4-yl)amino)-5-(3-(methoxymethyl)-1,2,4-thiadiazol-5-yl)pyridin-2-yl)acetamide]: the negative logarithm of the IC50 (pIC50) against Tyk2 and on JH2 domain of human Tyk2 (setting [2]) was not below 8.00 in each case.
On to `CNC(=O)Nc1cc(Nc2cc(C)nc(C(C)(F)F)n2)c(-c2ccc(C#N)cn2)cn1` [Example 520, 1-(5-cyano-4′-((2-(1,1-difluoroethyl)-6-methylpyrimidin-4-yl)amino)-[2,3′-bipyridin]-6′-yl)-3-methylurea], for which the pIC50 against Tyk2 (MSD) and on JH2 domain of human Tyk2 (setting [3]) was not below 8.00 each time.
Regarding `CC(=O)Nc1cc(Nc2ccnc(C(C)(F)F)n2)c(-c2ccn(CC3CC3)n2)cn1` [Example 704, N-(5-(1-(cyclopropylmethyl)-1H-pyrazol-3-yl)-4-((2-(1,1-difluoroethyl)pyrimidin-4-yl)amino)pyridin-2-yl)acetamide], the negative-log IC50 (pIC50) against Tyk2 (MSD) and on JH2 domain of human Tyk2 (setting [3]) was not below 8.00 in each case.
As for `COCc1ncc(-c2cnc(NC(C)=O)cc2Nc2cc(C)nc(C(C)(F)F)n2)s1` [Example 232, N-(4-((2-(1,1-difluoroethyl)-6-methylpyrimidin-4-yl)amino)-5-(2-(methoxymethyl)thiazol-5-yl)pyridin-2-yl)acetamide], the pIC50 against Tyk2 (MSD) and at JH2 domain of human Tyk2 (setting [1]) was not below 8.00 in each case.
`CCCn1ccc(-c2cnc(NC(C)=O)cc2Nc2cc(C)nc(C(C)(F)F)n2)n1` [Example 615, N-(4-((2-(1,1-difluoroethyl)-6-methylpyrimidin-4-yl)amino)-5-(1-propyl-1H-pyrazol-3-yl)pyridin-2-yl)acetamide]: the pIC50 against Tyk2 (MSD) and at JH2 domain of human Tyk2 (setting [3]) was not below 8.00 throughout.
In the case of `CC(=O)Nc1cc(Nc2cc(C)nc(C3CCOC3)n2)c(-c2ccn(C)n2)cn1` (stereo not shown) [Example 555, N-(5-(1-methyl-1H-pyrazol-3-yl)-4-((6-methyl-2-(tetrahydrofuran-3-yl)pyrimidin-4-yl)amino)pyridin-2-yl)acetamide], the pIC50 at Tyk2 (MSD) was 7.00 to 8.00; on JH2 domain of human Tyk2 (setting [3]), not below 8.00.
The corresponding values for `COc1cnc(NC(C)=O)cc1Nc1cc(-c2cn[nH]c2F)nc(C(C)(F)F)n1` [Example 385, N-(4-((2-(1,1-difluoroethyl)-6-(5-fluoro-1H-pyrazol-4-yl)pyrimidin-4-yl)amino)-5-methoxypyridin-2-yl)acetamide] are 6.00 to 7.00 and 7.00 to 8.00.
Turning to `CC(=O)Nc1cc(Nc2cc(C)nc(C(C)(F)F)n2)c(-c2ncc(CN3CCCC3)s2)cn1` [Example 738, N-(4-((2-(1,1-difluoroethyl)-6-methylpyrimidin-4-yl)amino)-5-(5-(pyrrolidin-1-ylmethyl)thiazol-2-yl)pyridin-2-yl)acetamide], the pIC50 on Tyk2 (MSD) and on JH2 domain of human Tyk2 (setting [3]) was not below 8.00 each time.
For the molecule `CC(=O)Nc1cc(Nc2cc(C)nc(C(C)(F)F)n2)c(-c2cccc(N3CCOCC3)n2)cn1` [Example 628, N-(4′-((2-(1,1-difluoroethyl)-6-methylpyrimidin-4-yl)amino)-6-morpholinO[2,3′-bipyridin]-6′-yl)acetamide], the negative-log IC50 (pIC50) against Tyk2 (MSD) and on JH2 domain of human Tyk2 (setting [3]) was not below 8.00 throughout.
